Holding throughout (format): functional
The subject of one assay is Eleusine indica. Nature of the assay: Herbicidal activity against Eleusine indica at 1000 ppm relative to control.
The next assay relates to Xanthium strumarium. Nature of the assay: Herbicidal activity against Xanthium strumarium (cocklebur) at 1000 ppm relative to control.
The next assay has as its system Ambrosia artemisiifolia. Nature of the assay: Herbicidal activity against Ambrosia artemisiifolia (ragweed) at 1000 ppm relative to control.

The results in this text go back to ChEMBL document CHEMBL3046577, “Stereocontrolled synthesis of spirosuccinimide derivative of (+)-hydantocidin” (1995).

The source made the active and inactive calls. The rule behind the calls is not given here.

In the case of `O=C1NC(=O)[C@@]2(N1)O[C@H](CO)[C@@H](O)[C@H]2O`, the outcome with Eleusine indica, in the assay on Xanthium strumarium and in the assay on Ambrosia artemisiifolia was Active.
For the molecule `O=C1C[C@@]2(O[C@H](CO)[C@@H](O)[C@H]2O)C(=O)N1`, the results for the Activity in the assay with Eleusine indica, in the assay on Xanthium strumarium and with Ambrosia artemisiifolia were 70%, 90% and 90%, respectively.
